Data: patent US20200140489A1 (priority 2013, published 2020)
Read-outs that look alike come from different tables or passages of the source. Positions of bridges follow the written chain, without caps; N, C: chain ends. Non-standard residues stand in square brackets, D forms with d. Residues, ends and D or L forms follow the SMILES beside them. Nphe = O=C(O)CNCc1ccccc1

Columns and labels:
[1] = target: T1, AgrC-I (Staphylococcus aureus, UniProt O07911); experiment: Hemolysis assay, wild-type group-I strain RN6390B, rabbit red blood cells; settings: read-out: AgrC-I IC50; selected second-generation analogues, hemolysis assay; 200 fM − 10 μM
T1 sequence (O07911 1-430): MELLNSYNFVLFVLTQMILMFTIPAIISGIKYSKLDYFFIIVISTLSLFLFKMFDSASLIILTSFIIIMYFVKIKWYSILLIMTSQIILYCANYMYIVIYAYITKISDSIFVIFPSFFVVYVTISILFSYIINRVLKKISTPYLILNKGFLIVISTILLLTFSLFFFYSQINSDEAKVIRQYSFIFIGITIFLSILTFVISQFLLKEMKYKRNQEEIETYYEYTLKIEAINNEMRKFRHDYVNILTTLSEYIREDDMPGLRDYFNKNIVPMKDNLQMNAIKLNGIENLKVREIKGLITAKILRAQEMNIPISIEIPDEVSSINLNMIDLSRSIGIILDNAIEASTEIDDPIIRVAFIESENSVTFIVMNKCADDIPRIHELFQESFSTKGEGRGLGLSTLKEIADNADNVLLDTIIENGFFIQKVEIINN

[2] = target: T2, AgrC-II (Staphylococcus aureus, UniProt O33587); experiment: Hemolysis assay, wild-type group-II strain RN6923, rabbit red blood cells
T2 sequence (O33587 1-437): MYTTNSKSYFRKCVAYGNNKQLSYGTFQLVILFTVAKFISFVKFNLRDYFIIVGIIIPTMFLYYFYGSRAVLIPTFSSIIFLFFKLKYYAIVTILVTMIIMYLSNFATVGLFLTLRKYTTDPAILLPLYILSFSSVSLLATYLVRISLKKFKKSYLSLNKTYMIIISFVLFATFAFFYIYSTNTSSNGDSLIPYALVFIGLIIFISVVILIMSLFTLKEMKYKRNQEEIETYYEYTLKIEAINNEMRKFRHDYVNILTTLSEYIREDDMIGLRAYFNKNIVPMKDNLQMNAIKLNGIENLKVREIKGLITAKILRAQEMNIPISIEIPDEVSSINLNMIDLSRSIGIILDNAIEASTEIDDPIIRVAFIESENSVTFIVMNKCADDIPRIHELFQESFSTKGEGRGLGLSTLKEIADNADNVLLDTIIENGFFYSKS

[3] = target: T3, AgrC-III (Staphylococcus aureus, UniProt O33590); experiment: Hemolysis assay, wild-type group-III strain MN8, rabbit red blood cells
T3 sequence (O33590 1-425): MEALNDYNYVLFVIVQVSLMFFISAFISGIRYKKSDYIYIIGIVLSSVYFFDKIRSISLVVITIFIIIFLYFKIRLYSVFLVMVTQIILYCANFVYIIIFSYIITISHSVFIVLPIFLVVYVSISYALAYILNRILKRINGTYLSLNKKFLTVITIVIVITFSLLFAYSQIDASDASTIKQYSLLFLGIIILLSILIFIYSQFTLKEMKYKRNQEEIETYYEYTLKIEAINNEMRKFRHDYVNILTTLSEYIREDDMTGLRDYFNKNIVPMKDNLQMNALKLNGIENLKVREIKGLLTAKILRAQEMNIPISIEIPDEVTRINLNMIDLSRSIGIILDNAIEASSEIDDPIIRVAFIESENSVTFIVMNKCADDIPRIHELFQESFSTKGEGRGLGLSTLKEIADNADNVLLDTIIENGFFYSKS

[4] = target: T4, AgrC-IV (Staphylococcus aureus, UniProt Q309Z2); experiment: Hemolysis assay, wild-type group-IV strain RN4850, rabbit red blood cells; settings: for IC50: read-out: AgrC-IV IC50, hemolysis assay, 200 fM − 10 μM
T4 sequence (Q309Z2 1-430): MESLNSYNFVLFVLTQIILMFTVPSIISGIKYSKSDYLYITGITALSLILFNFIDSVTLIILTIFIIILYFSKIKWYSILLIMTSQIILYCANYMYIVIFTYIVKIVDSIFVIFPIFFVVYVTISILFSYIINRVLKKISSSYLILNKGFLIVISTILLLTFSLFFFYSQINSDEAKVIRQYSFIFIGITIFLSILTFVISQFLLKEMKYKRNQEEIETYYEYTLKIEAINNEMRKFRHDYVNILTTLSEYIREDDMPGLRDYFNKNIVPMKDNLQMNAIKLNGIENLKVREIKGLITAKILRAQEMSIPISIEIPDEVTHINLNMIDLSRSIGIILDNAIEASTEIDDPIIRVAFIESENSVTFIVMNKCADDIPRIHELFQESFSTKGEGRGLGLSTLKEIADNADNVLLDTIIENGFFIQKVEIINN

[5] = target: T2, AgrC-II; type: cell-based, S. aureus; settings: for IC50: read-out: AgrC-II IC50, fluorescence reporter strain
[6] = tested on: TSST-1 production in wild-type group-III S. aureus (MN8); type: cell-based
[7] = target: T1, AgrC-I; type: cell-based, S. aureus
[8] = target: T3, AgrC-III; type: cell-based, S. aureus
[9] = target: T4, AgrC-IV; type: cell-based, S. aureus
[10] = target: T3, AgrC-III; settings: read-out: AgrC-III EC50; β-lactamase reporter strain; 2.5 pM − 10 μM

CC(=O)N[C@H]1CSC(=O)[C@H](CC(C)C)NC(=O)[C@H](CC(C)C)NC(=O)[C@H](Cc2ccccc2)NC(=O)[C@H](C)NC1=O [tAIP-III D2A, Ac-(C-A-F-L-L)] (Ac-CAFLL; thioester 1-C)
IC50 [1]: 0.332 nM
IC50 ([2]; read-out: AgrC-II IC50, selected second-generation analogues, hemolysis assay, 200 fM − 10 μM): 0.711 nM
IC50 ([3]; read-out: AgrC-III IC50, selected second-generation analogues, 200 fM − 10 μM): 0.197 nM
IC50 ([4]; selected second-generation analogues): 0.306 nM
IC50 ([5]; second-generation analogues, 200 fM − 10 μM): 0.9 nM
reduction of TSST-1 levels [6]: 80%

CC[C@H](C)[C@H](N)C(=O)N[C@@H](CC(N)=O)C(=O)N[C@H]1CSC(=O)[C@H](CC(C)C)NC(=O)[C@H](CC(C)C)NC(=O)[C@H](Cc2ccccc2)NC(=O)[C@H](C)NC1=O [AIP-III D4A, I-N-(C-A-F-L-L)] (H-INCAFLL; thioester 3-C)
fold increase of inhibitory activity relative to AIP-III ([7]; gfp reporter, group-I): at least 10 fold
fold more active inhibitor than tAIP-I D2A ([7]; gfp reporter, group-I): ~10 fold
fold increase of inhibitory activity relative to AIP-III ([8]; gfp reporter, group-III): at least 10 fold
fold more active inhibitor than tAIP-I D2A ([8]; gfp reporter, group-III): ~10 fold
fold increase of inhibitory activity relative to AIP-III ([9]; gfp reporter, group-IV): at least 10 fold
fold more active inhibitor than tAIP-I D2A ([9]; gfp reporter, group-IV): ~10 fold
fold more active than tAIP-I D2A in the hemolysis assay ([2]; group-II strain): 40 fold
IC50 ([3]; read-out: AgrC-III IC50, 200 fM − 10 μM): 0.163 nM
fold more active than tAIP-I D2A in the hemolysis assay ([4]; group IV strain): three
IC50 [4]: 0.106 nM
fold increase of inhibitory activity relative to AIP-III ([5]; gfp reporter, group-II): at least 10 fold
fold more active inhibitor than tAIP-I D2A ([5]; gfp reporter, group-II): ~10 fold
reduction of TSST-1 levels [6]: 80%

CC[C@H](C)[C@H](N)C(=O)N[C@@H](CC(N)=O)C(=O)N[C@H]1CSC(=O)[C@H](CC(C)C)NC(=O)[C@H](CC(C)C)NC(=O)CN(Cc2ccccc2)C(=O)[C@H](CC(=O)O)NC1=O [AIP-III nF5, I-N-(C-D-nF-L-L)] (H-INCD[Nphe]LL; thioester 3-C)
IC50 ([7]; read-out: AgrC-I IC50, fluorescence reporter strain, AIPs tested over 200 fM − 10 μM or (b1) 2.5 pM − 10 μM, triplicate): 13.8 nM
EC50 [10]: 202 nM
IC50 ([8]; read-out: AgrC-III IC50, fluorescence reporter strain, AIPs tested over 200 fM − 10 μM or (b1) 2.5 pM − 10 μM, triplicate): > 1000 nM
fold increase of inhibitory activity relative to AIP-III ([9]; gfp reporter, group-IV): 10 fold
IC50 ([9]; read-out: AgrC-IV IC50, fluorescence reporter strain, AIPs tested over 200 fM − 10 μM or (b1) 2.5 pM − 10 μM, triplicate): 0.839 nM
fold reduction of potency for AgrC-II versus AIP-III ([5]; gfp reporter): 13 fold
IC50 ([5]; AIPs tested over 200 fM − 10 μM or (b1) 2.5 pM − 10 μM, triplicate): 75.6 nM
